Patent US20150231109A1, “COMBINATIONS (CATECHINS AND METHOTREXATE) FOR USE IN THE TREATMENT OF MELANOMAS” (UNIVERSIDAD DE MURCIA, priority 2012, published 2015)

Assays:
[1] = system: low passage patient-derived melanoma cells bearing MEK and BRAF mutations; experiment: MTT assay on low passage patient-derived melanoma cell lines with BRAF and MEK1 or MEK2 mutations; assay type: cell-based, human; conditions: BRAF-inhibitor and MEK-inhibitor resistant lines; MTX/TMECG 1 μM/10 μM, PLX-4720 1 μM
Experimental: G, MTT assay indicating effects of MTX/TMECG (1 μM/10 μM) and PLX-4720 (1 μM) treatment on low passage patient-derived melanoma cells bearing indicated MEK and BRAF mutations. Cells were treated with vehicle only (•), PLX-4720 ( ), or with a combination of MTX+TMECG (Δ). Note the number of cells at the start of the experiment was at the limit of detection. […] Error bars show mean±SD.
MTX/TMECG was tested against two low passage melanoma cell lines (fewer than 10 passages) derived from patients with activating BRAF mutations that are resistant to both BRAF-inhibitor and MEK-inhibitor therapy, owing to the presence of activating mutations in MEK1 or MEK2 (Nikolaev et al., 2011). In the MTT assays (FIGS. 2G and 5A) a low starting number of cells (2×10^3) was used, so that any proliferation could be readily visualized.
Cell viability was evaluated using the 3-(4,5-dimethylthiazol-2-yl)-2,5-diphenyltetrazolium bromide (MTT) cell proliferation assay.

SK-MEL-28 melanoma cells = experiment: HPLC/MS analyses of MTX, TMECG-QM and DHF in whole cell extracts; assay type: cell-based, human; conditions: SK-MEL-28 whole cell extracts, 24 h, MTX 1 μM and/or TMECG 10 μM; control 3.8 ± 1.1
Experimental: By way of example, the present inventors have shown that an active agent, such as MTX, may be used to increase TYR expression, thereby increasing the conversion of a catechin to its quinone methide form. The inventors have undertaken HPLC analyses of MTX, TMECG-QM, and DHF in whole cell extracts of SK-MEL-28 melanoma cells that were subjected to MTX (1 μM) and TMECG (10 μM) individual and combined treatments (see Table 1).

B16/F10 melanoma cells = experiment: Subcutaneous B16/F10 melanoma model in C57BL/6 mice; assay type: in vivo, mouse; conditions: compared to untreated mice
Experimental: FIGS. 4A-N. MTX and TMECG combination therapy is effective in vivo. A, A375 melanoma cells were included in a human reconstructed skin model and were treated with MTX (1 μM) and/or TMECG (10 μM) for 14 days. B, B16/F10 melanoma cells were injected subcutaneously into C57/B16 mice. Images show tumor size 17 days post-injection in control and treated mice. […] C, Luciferase imaging of control and MTX/TMECG-treated mice 12 days post-tumor cell injection. Beetle luciferin (120 mg/kg of mouse) was injected intraperitoneally. The values (means±s.d.) are representative of three independent experiments. *P=0.007; **P=0.002. […] E, Quantification of macrometastases (0-10, 10-25 or >25) after treatment with vehicle (control), MTX (1 mg/kg/day), and/or TMECG (50 mg/kg/day). […] B16/F10 cells extracted from tumors were examined for their sensitivity to the MTX/TMECG combination (1 μM and 10 μM, respectively) using quantification of the luminescence signal (left panel). […]
Animals were bred and maintained according to the Spanish legislation on the ‘Protection of Animals used for Experimental and other Scientific Purposes’ and in accordance with the directives of the European community. […] Primary spleen tumors and hepatic metastases at 12 and 14 days, respectively, were analyzed using the IVIS Imaging System (Caliper Life Sciences). […]

[2] = system: B16/F10 primary splenic tumors; experiment: Primary spleen tumors after intrasplenic injection of luciferase-tagged B16/F10 cells; assay type: in vivo, mouse
Experimental: C, Luciferase imaging of control and MTX/TMECG-treated mice 12 days post-tumor cell injection. Beetle luciferin (120 mg/kg of mouse) was injected intraperitoneally. The values (means±s.d.) are representative of three independent experiments. *P=0.007; **P=0.002. […] Xenograft tumors treated with DMSO (vehicle) or MTX/TMECG (1 mg/kg/day and 50 mg/kg/day, respectively) over 14-days. […] Representative images taken from two independent experiments (n=5 for each experiment). Scale bar=200 μm and is applicable to both panels. I, B16/F10 melanoma cells, expressing a luciferase reporter, were injected subcutaneously to mice. Mice were divided in two groups (n=7) and treated with vehicle (DMSO) or MTX/TMECG (1 mg/kg/day and 10 mg/kg/day, respectively) over 21-days. Then, tumors were pooled and dissociated. B16/F10 cells extracted from tumors were examined for their sensitivity to the MTX/TMECG combination (1 μM and 10 μM, respectively) using quantification of the luminescence signal (left panel). […] Scale bar refers to all panels. […] Mice were treated with vehicle, MTX (1 mg/kg/day), and/or TMECG (50 mg/kg/day). […] Scale bar refers to all panels.
A, Luciferase imaging of vehicle (control), MTX, and/or TMECG-treated mice 12 days post-tumor cell injection. Firefly luciferin (120 mg/kg of mouse) was injected intraperitoneally. The values are representative of three independent experiments. […] The number of cells was estimated by extrapolation of the experimental luciferase signal to calibration curves. A straight line with a good linear correlation coefficient (0.998) was obtained by plotting luciferase signal vs number of B16/F10-luc2 cells. Treatment of mice (n=6) started 24 hr after tumor induction (Day 1). For all experiments: *p<0.05 with respect to control mice; #p<0.05 with respect to individual MTX or TMECG treatments.

[3] = Pharmacokinetic studies in mice plasma; assay type: in vivo; conditions: mouse, ip, male C57BL/6 mice, intra-peritoneal TMECG 50 mg/kg alone or with MTX 50 mg/kg
Experimental: Pharmacokinetic studies were performed in male C57BL/6 mice after intra-peritoneal injection of MTX (50 mg/kg) and/or TMECG (50 mg/kg). Animals were anesthetized with CO2, and whole blood samples (˜0.5 mL) were collected via cardiac puncture. Samples for drug quantification were collected from different animals (in triplicate) at 5, 15, and 30 min and at 1, 2, 4, and 6 hr post-dose. Whole blood samples were transferred to lithium heparin blood collection tubes, and then centrifuged at 10,000 rpm for 10 min at 4° C. After plasma deproteinization with 5% trichloroacetic acid (TCA), MTX and TMECG plasma concentrations were calculated by HPLC. Pharmacokinetic parameters were estimated using the WinNonlin software package (WinNonlin Professional version 5.1., Pharsight Corporation, CA). WinNonlin model 200 was used for the non-compartmental analysis of the concentration-time data. The area under the plasma concentration-time curve (AUClast) from time 0 to the last point (tlast) with measurable concentration (Clast) was estimated using a linear trapezoidal approximation (AUClast). The elimination half-life (t1/2) was calculated as ln2/kel, where kel (elimination rate constant) was estimated using least squares regression analysis of the concentration-time data obtained during the terminal log-linear elimination phase. The maximum plasma concentrations (Cmax) were estimated directly from the data, with tmax being defined as the time of the first occurrence of Cmax.

[4] = Toxicology in non-tumor inoculated C57BL/6 mice; assay type: in vivo, mouse
Experimental: FIGS. 4A-N. MTX and TMECG combination therapy is effective in vivo. A, A375 melanoma cells were included in a human reconstructed skin model and were treated with MTX (1 μM) and/or TMECG (10 μM) for 14 days. B, B16/F10 melanoma cells were injected subcutaneously into C57/B16 mice. Images show tumor size 17 days post-injection in control and treated mice. […] C, Luciferase imaging of control and MTX/TMECG-treated mice 12 days post-tumor cell injection. Beetle luciferin (120 mg/kg of mouse) was injected intraperitoneally. The values (means±s.d.) are representative of three independent experiments. *P=0.007; **P=0.002. D, Bioluminescent imaging of livers at 14 days post-intrasplenic injection of B16-F10-luc-G5 cells from untreated and MTX/TMECG-treated mice are shown. E, Quantification of macrometastases (0-10, 10-25 or >25) after treatment with vehicle (control), MTX (1 mg/kg/day), and/or TMECG (50 mg/kg/day). F, Photomicrograph of H&E-stained, 4 μm formalin-fixed, paraffin-embedded liver sections from control (DMSO) and MTX/TMECG-treated mice (1 and 50 mg/kg/day, respectively) (5× magnification). G, MTX activation of MITF and tyrosinase activates the melanoma-specific antifolate activity of TMECG, leading to depletion of cellular dTTP and apoptosis. H, Sections stained with hematoxylin and eosin show the effect of MTX/TMECG on B16/F10 primary splenic tumors. Xenograft tumors treated with DMSO (vehicle) or MTX/TMECG (1 mg/kg/day and 50 mg/kg/day, respectively) over 14-days. […] Representative images taken from two independent experiments (n=5 for each experiment). Scale bar=200 μm and is applicable to both panels. I, B16/F10 melanoma cells, expressing a luciferase reporter, were injected subcutaneously to mice. Mice were divided in two groups (n=7) and treated with vehicle (DMSO) or MTX/TMECG (1 mg/kg/day and 10 mg/kg/day, respectively) over 21-days. Then, tumors were pooled and dissociated. B16/F10 cells extracted from tumors were examined for their sensitivity to the MTX/TMECG combination (1 μM and 10 μM, respectively) using quantification of the luminescence signal (left panel). J, The histogram represents the number of B16/F10-luc2 cells remaining after 3 days of MTX/TMECG treatment with respect to vehicle treated controls (100%). […] K, The morphology of tumor dissociated B16/F10-luc2 cells before and after of MTX/TMECG treatment. Scale bar refers to all panels. L, Histograms represent the number of copies of TYR mRNA for every 1×10^3 copies of β-actin±SD of three independent experiments. […]
To explore the toxicity of TMECG and MTX, these agents (at indicated concentrations) were administrated intradermally to the back of non-tumor inoculated female C57BL/6 mice (n=10), and body weight monitored every other day. […]

[5] = target: 5-cytosine DNA methyltransferase-1 (Homo sapiens, UniProt P26358); experiment: Inhibition of 5-cytosine DNA methyltransferase-1; assay type: biochemical; conditions: data not shown
Sequence of 5-cytosine DNA methyltransferase-1 (P26358 whole entry): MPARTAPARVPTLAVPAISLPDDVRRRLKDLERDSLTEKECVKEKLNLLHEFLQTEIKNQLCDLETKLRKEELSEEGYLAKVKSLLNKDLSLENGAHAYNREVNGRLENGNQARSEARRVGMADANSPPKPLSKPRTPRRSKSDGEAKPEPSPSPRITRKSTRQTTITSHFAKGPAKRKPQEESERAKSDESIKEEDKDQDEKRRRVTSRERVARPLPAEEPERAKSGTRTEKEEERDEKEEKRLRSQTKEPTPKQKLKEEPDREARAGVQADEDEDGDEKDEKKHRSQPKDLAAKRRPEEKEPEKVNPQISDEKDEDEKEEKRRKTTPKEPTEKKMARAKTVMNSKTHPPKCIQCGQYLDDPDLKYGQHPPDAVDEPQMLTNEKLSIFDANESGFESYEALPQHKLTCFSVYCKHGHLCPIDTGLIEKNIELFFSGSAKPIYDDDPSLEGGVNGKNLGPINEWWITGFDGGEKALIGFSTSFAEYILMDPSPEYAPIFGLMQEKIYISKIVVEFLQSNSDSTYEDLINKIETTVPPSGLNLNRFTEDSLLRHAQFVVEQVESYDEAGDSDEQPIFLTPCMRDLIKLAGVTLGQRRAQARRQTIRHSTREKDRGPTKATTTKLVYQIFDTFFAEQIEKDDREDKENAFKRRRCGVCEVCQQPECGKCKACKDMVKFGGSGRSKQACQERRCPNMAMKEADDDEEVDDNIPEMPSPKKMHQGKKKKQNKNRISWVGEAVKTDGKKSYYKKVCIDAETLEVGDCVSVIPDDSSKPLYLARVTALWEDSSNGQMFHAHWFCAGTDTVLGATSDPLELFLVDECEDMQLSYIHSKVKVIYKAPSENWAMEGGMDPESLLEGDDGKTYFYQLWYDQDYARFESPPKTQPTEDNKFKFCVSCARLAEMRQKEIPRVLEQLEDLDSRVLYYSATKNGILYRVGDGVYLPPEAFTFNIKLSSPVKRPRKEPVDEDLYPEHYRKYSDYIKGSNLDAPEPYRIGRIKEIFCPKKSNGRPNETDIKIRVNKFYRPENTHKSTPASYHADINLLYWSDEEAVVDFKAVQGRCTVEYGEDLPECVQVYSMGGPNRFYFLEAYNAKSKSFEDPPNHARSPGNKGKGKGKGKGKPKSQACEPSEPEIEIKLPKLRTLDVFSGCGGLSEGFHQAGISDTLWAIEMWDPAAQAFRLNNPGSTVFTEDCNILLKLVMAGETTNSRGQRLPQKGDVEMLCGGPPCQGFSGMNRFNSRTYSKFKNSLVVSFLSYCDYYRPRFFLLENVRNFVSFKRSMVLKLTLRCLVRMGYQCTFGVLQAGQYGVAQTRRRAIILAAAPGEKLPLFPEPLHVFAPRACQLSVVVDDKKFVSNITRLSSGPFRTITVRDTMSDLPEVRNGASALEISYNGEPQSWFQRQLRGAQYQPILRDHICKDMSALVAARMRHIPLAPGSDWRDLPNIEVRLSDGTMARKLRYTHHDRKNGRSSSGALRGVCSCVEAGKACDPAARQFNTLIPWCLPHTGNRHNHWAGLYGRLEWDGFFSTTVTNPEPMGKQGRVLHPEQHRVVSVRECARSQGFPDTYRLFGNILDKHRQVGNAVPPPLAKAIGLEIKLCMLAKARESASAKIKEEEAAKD

glutamate dehydrogenase = glutamate dehydrogenase (Homo sapiens, UniProt P00367); experiment: Inhibition of glutamate dehydrogenase; assay type: biochemical; conditions: data not shown
Sequence of glutamate dehydrogenase (P00367 54-558): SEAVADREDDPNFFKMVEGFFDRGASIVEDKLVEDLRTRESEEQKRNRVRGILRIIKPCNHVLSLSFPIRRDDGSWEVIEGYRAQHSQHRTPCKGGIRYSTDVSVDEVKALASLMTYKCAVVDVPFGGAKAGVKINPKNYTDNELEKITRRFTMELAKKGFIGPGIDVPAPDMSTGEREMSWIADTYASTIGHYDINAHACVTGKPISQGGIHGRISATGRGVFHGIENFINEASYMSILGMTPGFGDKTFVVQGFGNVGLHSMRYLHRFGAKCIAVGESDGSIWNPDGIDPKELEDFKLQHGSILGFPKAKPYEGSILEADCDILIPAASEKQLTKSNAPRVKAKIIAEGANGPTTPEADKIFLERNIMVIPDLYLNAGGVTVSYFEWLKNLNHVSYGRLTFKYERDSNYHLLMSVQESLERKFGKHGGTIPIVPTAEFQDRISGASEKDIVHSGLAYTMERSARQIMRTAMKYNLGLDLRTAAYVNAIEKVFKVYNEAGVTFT

proteasome = experiment: Inhibition of the proteasome; assay type: biochemical; conditions: data not shown
DHFR = target: T1, DHFR (Homo sapiens, UniProt P00374); conditions: Sanchez-del-Campo et al., 2009a; cited from earlier work
T1 sequence (P00374 1-187): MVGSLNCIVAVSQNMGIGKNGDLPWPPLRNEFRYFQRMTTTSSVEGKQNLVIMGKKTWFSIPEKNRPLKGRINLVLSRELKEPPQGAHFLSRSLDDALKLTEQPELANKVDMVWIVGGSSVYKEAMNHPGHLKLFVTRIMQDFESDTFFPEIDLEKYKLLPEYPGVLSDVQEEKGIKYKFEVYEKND

In the case of CCCS(=O)(=O)Nc1ccc(F)c(C(=O)c2c[nH]c3ncc(Cl)cc23)c1F [PLX-4720], the “proliferation (MTT)” value [1] is reported as “failed to impact significantly on proliferation”.
For COc1cc(C(=O)O[C@@H]2Cc3c(O)cc(O)cc3O[C@@H]2c2ccc(O)c(O)c2)cc(OC)c1OC [TMECG, 3,4,5-trimethoxy-epicatechin-3-gallate], the DHF intracellular concentration (SK-MEL-28 melanoma cells) was 4.8 ± 0.9 pmol/10^6 cells, the tumor growth (B16/F10 melanoma cells) was “significantly reduced” and the “necrotic areas in splenic tumors” value ([2]; 14 days treatment, MTX 1 mg/kg/day and/or TMECG 50 mg/kg/day) was 11%±3%. For the same compound, the “effect on in vivo luciferase signal” value ([2]; MTX or TMECG alone, 12 days post-tumor cell injection) was “around 2 fold”, the AUC ([3]; read-out: TMECG Parameters AUC) was 79100 ng·h/mL and the Cmax ([3]; read-out: TMECG Parameters Cmax) was 39300 ng/mL. For the same compound, the Tmax ([3]; read-out: TMECG Parameters Tmax) was 5.4 min, the half-life ([3]; read-out: TMECG Parameters t1/2 (converted)) was 107 min and the mouse body weight ([4]; TMECG-treated versus untreated groups) was “not significant”. For the same compound, the toxicity in vivo ([4]; preliminary observations) was “not toxic in vivo”.
With COc1cc(C(=O)O[C@H](Cc2c(O)cc(O)cc2O)C(=O)c2ccc(O)c(O)c2)cc(OC)c1OC [TMECG-QM] the “inhibition of 5-cytosine DNA methyltransferase-1” value [5] was “does not inhibit”, the “inhibition of glutamate dehydrogenase” value (glutamate dehydrogenase) was “does not inhibit” and the “inhibition of the proteasome” value (proteasome) was “does not inhibit”. The “inhibition constant for DHFR” value (DHFR) was “nanomolar order”.
